Like-named read-outs stand apart in the source and are kept apart here. Starred links: 1 amine or outer side, 2 acyl side, 3 side chain; linkers in the order of their positions; H or OH if unused. Non-standard residues stand in square brackets, D forms with d. Groups on a side chain read outwards from the residue. No end group written: not given here. *: point of attachment. C20 diacid = O=C(O)CCCCCCCCCCCCCCCCCCC(=O)*; C18 diacid = O=C(O)CCCCCCCCCCCCCCCCC(=O)*; γGlu = O=C(O)[C@H](CCC(=O)[*:2])N[*:1]; εLys = N[C@@H](CCCCN[*:1])C(=O)[*:2]; AEEA = NCCOCCOCC(=O)O; Aib = CC(C)(N)C(=O)O
Key:
[1] = biological target: T1, hGLP1R (Homo sapiens, UniProt P43220); assay: hGLP1R CreLuc reporter gene assay in 0.5% and 100% plasma; assay type: cell-based; settings: CreLuc reporter gene assay
T1 construct: expressed in transfected cells; host or cells: HEK-293 cells carrying a CRE-luciferase reporter gene
Method in brief: (§1)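 Agonist EC50s came from 8-concentration curves over four decades, fitted by non-linear variable-slope regression of CRE-driven luciferase luminescence. Cells were exposed 4 h at 37 °C, in buffer with 0.5% human plasma or in 100% plasma; GIPR was expressed in CHO cells, GLP-1R and NPY2R in HEK cells.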

[2] = biological target: T2, hGIPR (Homo sapiens, UniProt P48546); assay: hGIPR CreLuc reporter gene assay in 0.5% and 100% plasma; assay type: cell-based; settings: CreLuc reporter gene assay
T2 construct: expressed in transfected cells; host or cells: CHO cells carrying a CRE-luciferase reporter gene
T2 sequence (P48546 22-466): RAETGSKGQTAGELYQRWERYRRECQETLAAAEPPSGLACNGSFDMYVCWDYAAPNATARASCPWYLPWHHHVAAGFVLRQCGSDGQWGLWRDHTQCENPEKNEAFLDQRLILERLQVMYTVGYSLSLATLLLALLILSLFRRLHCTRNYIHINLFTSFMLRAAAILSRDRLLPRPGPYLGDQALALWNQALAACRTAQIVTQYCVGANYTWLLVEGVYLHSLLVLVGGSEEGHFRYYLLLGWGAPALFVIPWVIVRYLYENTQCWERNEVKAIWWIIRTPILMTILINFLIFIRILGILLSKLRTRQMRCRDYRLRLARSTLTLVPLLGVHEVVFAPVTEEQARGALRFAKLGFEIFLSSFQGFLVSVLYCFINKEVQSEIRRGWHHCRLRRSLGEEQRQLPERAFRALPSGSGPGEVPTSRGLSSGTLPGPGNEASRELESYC
Method in brief: as §1

[3] = biological target: T3, hNPY2R (Homo sapiens, UniProt P49146); assay: hNPY2R CreLuc reporter gene assay in 0.5% and 100% plasma; assay type: cell-based; settings: CreLuc reporter gene assay
T3 construct: expressed in transfected cells; host or cells: HEK-293 cells carrying a CRE-luciferase reporter gene
T3 sequence (P49146 1-381): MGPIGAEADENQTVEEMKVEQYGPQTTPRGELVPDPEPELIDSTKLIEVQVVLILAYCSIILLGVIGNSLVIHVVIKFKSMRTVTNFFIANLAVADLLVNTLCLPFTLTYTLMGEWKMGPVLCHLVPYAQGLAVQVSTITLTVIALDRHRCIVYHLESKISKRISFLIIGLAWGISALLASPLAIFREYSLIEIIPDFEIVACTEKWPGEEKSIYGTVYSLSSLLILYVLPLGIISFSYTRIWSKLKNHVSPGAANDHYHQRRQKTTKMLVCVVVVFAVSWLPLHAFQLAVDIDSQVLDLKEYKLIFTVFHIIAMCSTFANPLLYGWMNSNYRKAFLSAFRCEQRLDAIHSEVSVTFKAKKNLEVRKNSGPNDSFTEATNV
Method in brief: as §1

[4] = Mouse PK after intravenous application; assay type: in vivo; settings: plasma, mean residence time, intravenous 30-60 nmol/kg, male NMRI mice
Method: Pharmacokinetic parameters of the peptides were determined after intravenous application to NMRI mice. Male NMRI mice were obtained from Janvier Laboratories (France) weighing 30 to 40 g. Mice were housed in standard cages with a 12:12 hour light:dark cycle and standard food and water access ad libitum. Each test peptide was dissolved in 50 mM phosphate buffer (pH 7.4)/3.5% mannitol. Intravenous application of 30-60 nmol/kg was performed via the tail vein. Serial blood samples from conscious mice were collected from the saphenous vein in EDTA-containing vials at different time points up to 56 hours post-dosing. Subsequently, plasma was prepared by centrifugation for 5 min at approximately 5000 rpm and stored at −20° C. until quantification of the peptide plasma levels by liquid chromatography mass spectrometry (LC-MS). Individual plasma concentration—time profiles were analysed by a non-compartmental approach and the resulting pharmacokinetic parameters were calculated.

[5] = Effect on acute food intake in normal NMRI mice; assay type: in vivo; settings: 30 nmol/kg subcutaneously once, normalized to vehicle group, male NMRI mice
Method: Example 4: Effect on Acute Food Intake in Normal NMRI Mice
Male NMRI mice were obtained from Janvier (Janvier Labs, France) or from Charles River (Charles River Research Models & Services Germany GmbH) at the age of 3 weeks. The animals get a microchip (Datamars, Slim Microchip T-SL) for individual identification after delivery. They were housed with 4 mice per cage under a 12/12 dark-light cycle, light off at 3 p.m. Room temperature was controlled to 21° C. +/−1° C. and humidity 60%+/−20%. Mice had ad libitum access to regular rodent chow (KLIBA Nafag 3040 or Altromin 1324, Brogaarden, Denmark) and tap water.
Latest transfer into the HM2-System of MBRose, Denmark (real-time monitoring system of food- and water intake) of the animals 5 days before study start, to allow acclimatization to experimental conditions. As the animals were uniquely identified with the microchips, each individual animal was identified by its own microchip upon entry and exit from the food channel via antennae. Randomization of the mice for each study group (n=8; age earliest 6 weeks old) was based on food intake (middle of last three days 24 h-Intervall) and bodyweight directly before start of the study. A vehicle treated (50 mM phosphate buffer pH7.4 with 3.5% Mannitol) group was included in each experiment. To have the same nutrition standard for each animal the food access was locked eight hours before dark phase. One hour before night, the animals were once treated subcutaneously with the test peptide. Food intake was reported hourly for a period of 24 h.

[6] = 0.5% human plasma, read-out: hGLP1R 0.5% hP
[7] = 0.5% human plasma, read-out: hGIPR 0.5% hP
[8] = 0.5% human plasma, read-out: hNPY2R 0.5% hP
[9] = 100% human plasma, read-out: hNPY2R 100% hP
[10] = 100% human plasma, read-out: hGIPR 100% hP

T1 sequence (P43220 24-463): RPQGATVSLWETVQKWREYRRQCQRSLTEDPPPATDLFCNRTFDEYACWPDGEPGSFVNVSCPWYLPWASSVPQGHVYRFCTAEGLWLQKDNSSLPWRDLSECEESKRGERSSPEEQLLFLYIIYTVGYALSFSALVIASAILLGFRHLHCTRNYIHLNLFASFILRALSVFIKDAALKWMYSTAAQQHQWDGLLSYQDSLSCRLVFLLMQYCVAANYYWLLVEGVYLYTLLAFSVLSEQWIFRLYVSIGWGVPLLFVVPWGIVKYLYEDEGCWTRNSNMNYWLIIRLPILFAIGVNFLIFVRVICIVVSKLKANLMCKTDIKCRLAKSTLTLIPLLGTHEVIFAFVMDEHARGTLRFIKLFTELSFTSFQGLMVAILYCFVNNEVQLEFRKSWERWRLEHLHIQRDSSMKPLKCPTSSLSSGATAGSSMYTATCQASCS

EC50 [1, 6] [nM] | EC50 [2, 7] [nM] | EC50 [3, 8] [nM] | EC50 [3, 9] [nM] | MRT [4] [h] | EC50 [2, 10] [nM] | EC50 ([1]; 100% human plasma, read-out: hGLP1R 100% hP) [nM] | Substance | Acute Food Intake 24 h 30 nmol/kg [% CTL] [5] [% CTL]
0.13 | 0.43 | 10.6 | 31.6 | 10.2 | – | – | Y[Aib]EGTFTSDYSI[Aib]LEKQAQ[Aib]AFVQWLIK([εLys-γGlu-γGlu-γGlu-γGlu-γGlu-γGlu-γGlu-C20 diacid])GGPSEGASLRHYYNWLTRQRY-NH2 [Compound 224, Y-Aib-E-G-T-F-T-S-D-Y-S-I-Aib-L-E-K-Q-A-Q-Aib-A-F-V-Q-W-L-I-K(1,3)-GGPSEGASLRHYYNWLTRQRY-NH2.C20DA-gGlu-gGlu-gGlu-gGlu-gGlu-gGlu-gGlu-eLys(1,2)] | –
0.12 | 0.25 | – | 40.5 | 7.5 | 0.93 | – | Y[Aib]EGTFTSDYSI[Aib]LEKQAQ[Aib]AFVEWLIK([AEEA-AEEA-γGlu-γGlu-γGlu-γGlu-C18 diacid])GGPSEGASLRHYYNWLTRQRY-NH2 [Compound 297, Y-Aib-E-G-T-F-T-S-D-Y-S-I-Aib-L-E-K-Q-A-Q-Aib-A-F-V-E-W-L-I-K(1,3)-GGPSEGASLRHYYNWLTRQRY-NH2.C18DA-gGlu-gGlu-gGlu-gGlu-OEG-OEG(1,2)] | –
0.35 | 0.37 | 20.7 | – | – | 1.82 | 16.7 | H-Y[Aib]EGTFTSDYSI[Aib]LEKQAQ[Aib]EFVEWLIK([γGlu-γGlu-γGlu-γGlu-C18 diacid])GGPSEGASLRHYYNWLTRQRY-NH2 [Compound 276, Y-Aib-E-G-T-F-T-S-D-Y-S-I-Aib-L-E-K-Q-A-Q-Aib-E-F-V-E-W-L-I-K(1,3)-GGPSEGASLRHYYNWLTRQRY-NH2.C18DA-gGlu-gGlu-gGlu-gGlu(1,2)] | 60

From patent US20240247080A1, “GLP1/GIP/NPY2 RECEPTOR TRIPLE AGONISTS” (Boehringer Ingelheim International GmbH, priority 2022, published 2024)
